{"source": "patent US6900193B1", "about": "“Structural modification of 19-norprogesterone I: 17-α-substituted-11-β-substituted-4-aryl and 21-substituted 19-norpregnadienedione as new antiprogestational agents” (The United States of America as represented by the …, priority 1996, dated 2005)", "key": {"[1]": {"test_system": "early stages of pregnancy", "conditions": "administered during the early stages of pregnancy; cited from earlier work"}, "implantation [2]": {"test_system": "implantation", "conditions": "man; cited from earlier work"}, "[3]": {"test_system": "estrogen-insensitive T47Dco human breast cancer cells", "conditions": "Horwitz 1985; cited from earlier work"}, "ovulation [4]": {"test_system": "ovulation", "conditions": "Dao, et al.; cited from earlier work"}, "Cushing's syndrome": {"test_system": "Cushing's syndrome", "conditions": "cited from earlier work"}, "implantation [5]": {"test_system": "implantation", "conditions": "guinea pig; cited from earlier work"}, "ovulation [6]": {"test_system": "ovulation", "conditions": "Baulieu, et al.; cited from earlier work"}, "implantation [7]": {"test_system": "implantation", "conditions": "rat; cited from earlier work"}, "[8]": {"target": "T1, human isoform A progesterone receptor (Homo sapiens, UniProt P06401)", "T1 sequence (P06401 1-769 isoform P06401-2)": "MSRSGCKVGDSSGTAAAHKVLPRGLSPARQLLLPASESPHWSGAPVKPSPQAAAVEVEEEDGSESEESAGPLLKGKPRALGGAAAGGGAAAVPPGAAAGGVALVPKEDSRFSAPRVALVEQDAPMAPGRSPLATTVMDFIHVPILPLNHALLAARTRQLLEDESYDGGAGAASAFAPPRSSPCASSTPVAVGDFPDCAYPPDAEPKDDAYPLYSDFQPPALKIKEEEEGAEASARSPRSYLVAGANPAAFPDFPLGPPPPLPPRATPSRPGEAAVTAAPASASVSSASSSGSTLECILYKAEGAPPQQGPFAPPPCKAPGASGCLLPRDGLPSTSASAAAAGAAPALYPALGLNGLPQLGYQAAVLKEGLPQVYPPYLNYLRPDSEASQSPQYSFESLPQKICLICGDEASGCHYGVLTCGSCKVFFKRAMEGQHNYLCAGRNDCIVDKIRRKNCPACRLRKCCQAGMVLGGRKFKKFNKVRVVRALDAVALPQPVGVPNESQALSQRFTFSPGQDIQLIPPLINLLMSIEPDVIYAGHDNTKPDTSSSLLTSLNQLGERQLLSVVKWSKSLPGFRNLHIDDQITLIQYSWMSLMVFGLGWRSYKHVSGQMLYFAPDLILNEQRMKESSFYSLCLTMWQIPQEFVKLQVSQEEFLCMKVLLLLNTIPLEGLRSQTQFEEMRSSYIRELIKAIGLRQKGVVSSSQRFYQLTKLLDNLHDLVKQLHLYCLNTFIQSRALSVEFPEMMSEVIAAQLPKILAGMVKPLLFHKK", "assay": "Relative binding affinity, human isoform A progesterone receptor", "conditions": "for BINDING AFFINITY Progester, figure in ( ): relative binding affinity of the human isoform A progesterone receptor: Table 2, figure in parentheses"}, "ovulation [9]": {"test_system": "ovulation", "assay": "Antiovulatory test", "format": "in vivo, rat", "conditions": "for Antiovulatory MED100: oral, rat, single dose at noon on day of proestrus", "method": "Antiovulatory Test […] female rats of the Sprague-Dawley strain weighing 200 to 250 g were maintained under standard laboratory conditions, 14 hours of light and 10 hours of darkness each day. Vaginal washings were obtained daily and evaluated microscopically to establish the estrous cycle of each animal. […] Each dose group consisted of eight rats and one group served as the vehicle control. Animals were dosed at noon on the day of proestrus and sacrificed 24 hours later when ova can usually be visualized in the distended ampulla of the oviduct using a dissecting microscope. The oviducts were excised, an incision made in the distended ampulla and the ova teased out in a drop of water on a microscope slide so that the number shed could be counted. Historically, control animals shed between 12 and 14 ova during each estrous cycle."}, "[10]": {"test_system": "pregnancy (number and condition of conceptuses)", "assay": "Postcoital test", "format": "in vivo, rat", "conditions": "oral; for postcoital contraceptive activity relative to the standard, in words: days 0-3 of gestation, versus 69B; for Postcoital MED100: rat, days 0-3"}, "[11]": {"test_system": "follicular development, ovulation, endometrial maturation", "assay": "Single oral dose in human subjects (unpublished data)", "format": "in vivo"}, "[12]": {"conditions": "in vivo"}, "[13]": {"assay": "Lability to base under reverse-phase HPLC conditions", "format": "physicochemical", "conditions": "MeOH/H2O/Et3N reverse-phase conditions; converts to compound 8, also at pH 7.0", "method": "Under nitrogen, a mixture of the crude ethoxyethylidenedioxy compound (18, 0.56 g., 1.11 mmol), 0.2 M NaOAc (3 mL, […]) in methanol (30 mL) was heated to reflux. Monitoring by TLC (5% acetone/CH2Cl2) indicated a complete reaction in 3.5 hours. The methanol was removed in vacuo under a stream of nitrogen, the residue diluted with water (˜50 mL) and extracted with CH2Cl2 (3×). The organic fractions were combined, washed with H2O (2×) and brine (1×), dried over Na2SO4, filtered and concentrated in vacuo to give 0.56 g of the crude 21-ol, 17α-acetate (41) as a foam. Purification of this material via flash chromatography (7.5% acetone/CH2Cl2) followed by trituration with ether/pentane gave 0.32 g of the target compound, 21-OH, 17α-acetate as an off-white solid in […]; m.p.=205-210° C. The NMR indicated this product contains 5.3% of the 17α-OH, 21-OAc (8) isomer as a contaminant. […] This transesterification occurs at an appreciate rate even when the solvent system is buffered at pH 7.0 with phosphoric acid. The purity of the acetate mixture (8 and 41) was ascertained at >99% by normal phase HPLC analysis (Waters Associates μPorasil Silica using CH3CN/CH2Cl2 (40:60) with a flow rate of 2 mL/min at λ=302 nm). […] The presence of the 17α-OH, 21-OAc isomer (8) to the extent of 5.3% could be detected by the appearance of two doublets, one at 4.88 and the other at 5.11, both with J=18.3 Hz."}}, "note": "Entries after “also recorded” stand apart in the source; their conditions may differ. Read-outs that look alike come from different tables or passages of the source."}
{"compound": "CC#C[C@]1(O)CC[C@H]2[C@@H]3CCC4=CC(=O)CCC4=C3[C@@H](c3ccc(N(C)C)cc3)C[C@@]21C", "note": "[mifepristone]", "values": [{"measurement": "antiprogestational/contragestative effect", "setting": "[1]", "result": "effective antiprogestational/contragestative agent"}, {"measurement": "prevention of implantation", "setting": "implantation [2]", "result": "prevent implantation"}, {"measurement": "growth inhibition of T47Dco human breast cancer cells", "setting": "[3]", "result": "growth-inhibitory properties"}, {"measurement": "inhibition of ovulation in the rat", "setting": "ovulation [4]", "result": "inhibit ovulation"}, {"measurement": "treatment of Cushing's syndrome", "setting": "Cushing's syndrome; Nieman, et al. 1985", "result": "successfully used"}, {"measurement": "antiglucocorticoid activity", "setting": "Cushing's syndrome; in vivo", "result": "very significant antiglucocorticoid activity"}, {"measurement": "prevention of implantation", "setting": "implantation [5]", "result": "prevent implantation"}, {"measurement": "effect on ovulation in human subjects", "setting": "ovulation [6]", "result": "affect ovulation"}, {"measurement": "prevention of implantation", "setting": "implantation [7]", "result": "prevent implantation"}]}
{"compound": "COCC(=O)C1(OC(C)=O)CCC2C3CCC4=CC(=O)CCC4=C3C(c3ccc(N4CCCCC4)cc3)CC21C", "note": "(stereo not drawn) [Compound 123a, 17α-Acetoxy-1113-[4-(N-piperidino)phenyl]-21-methoxy-19-norpregna-4,9-diene-3,20-dione]", "values": [{"measurement": "BINDING AFFINITY Progester, figure in ( ): relative binding affinity of the human isoform A progesterone receptor", "setting": "[8]", "result": 140}]}
{"compound": "CC(=O)OCC(=O)[C@@]1(OC(C)=O)CC[C@H]2[C@@H]3CCC4=CC(=O)CCC4=C3[C@@H](c3ccc(C(C)=O)cc3)C[C@@]21C", "note": "[Compound 106b, 17α,21-Diacetoxy-11β-(4-acetylphenyl)19-norpregna-4,9-diene-3,20-dione]", "values": [{"measurement": "BINDING AFFINITY Progester, figure in ( ): relative binding affinity of the human isoform A progesterone receptor", "setting": "[8]", "result": 172}]}
{"compound": "CC(=O)O[C@]1(C(C)=O)CC[C@H]2[C@@H]3CCC4=CC(=O)CCC4=C3[C@@H](c3ccc(N4CCCCC4)cc3)C[C@@]21C", "note": "[Compound 71, 17α-Acetoxy-11β-[4(N-Piperidino)phenyl]-19-norpregna-4,9-diene-3,20-dione]", "values": [{"measurement": "Antiovulatory MED100", "setting": "ovulation [9]", "result": ">16", "unit": "mg"}, {"measurement": "antiovulatory activity relative to the standard", "setting": "ovulation [9]; percent of the activity of 69B", "result": "about 5%"}, {"measurement": "dose level at which not fully active, antiovulatory", "setting": "ovulation [9]; versus 69B", "result": "> 16 times the MED100 for the standard"}, {"measurement": "postcoital contraceptive activity relative to the standard, in words", "setting": "[10]", "result": "about four times the postcoital contraceptive activity of the standard; also recorded: four times as potent as the standard"}, {"measurement": "Postcoital MED100", "setting": "[10]", "result": 0.5, "unit": "mg/day"}, {"measurement": "BINDING AFFINITY Progester, figure in ( ): relative binding affinity of the human isoform A progesterone receptor", "setting": "[8]", "result": 203}]}
{"compound": "COCC(=O)[C@@]1(OC)CC[C@H]2[C@@H]3CCC4=CC(=O)CCC4=C3[C@@H](c3ccc(N(C)C)cc3)C[C@@]21C", "note": "[Compound 113a, 17α,21-Dimethoxy-11β-[4-(N,N-dimethylamino)phenyl]-19-norpregna-4,9-diene-3,20-dione]", "values": [{"measurement": "postcoital contraceptive activity relative to the standard, in words", "setting": "[10]", "result": "about half as effective as compound 69B"}, {"measurement": "binding affinity for the human progesterone receptor (isoform A), in words", "setting": "[8]", "result": "high binding affinity"}, {"measurement": "BINDING AFFINITY Progester, figure in ( ): relative binding affinity of the human isoform A progesterone receptor", "setting": "[8]", "result": 237}]}
{"compound": "CC(=O)O[C@]1(C(C)=O)CC[C@H]2[C@@H]3CCC4=CC(=O)CCC4=C3[C@@H](c3ccc(N(C)C)cc3)C[C@@]21C", "note": "[Compound 69B, 17α-acetoxy-11β-(4-N,N-dimethylaminophenyl)-19-norpregna-4,9-diene-3,20-dione, reference compound]", "values": [{"measurement": "Antiovulatory MED100", "setting": "ovulation [9]", "result": 1, "unit": "mg"}, {"measurement": "Postcoital MED100", "setting": "[10]", "result": 2, "unit": "mg/day"}, {"measurement": "effect in human subjects following a single oral dose", "setting": "[11]", "result": "affect both follicular development and ovulation as well as endometrial maturation"}, {"measurement": "blood levels following oral administration", "setting": "[12]", "result": "Higher blood levels"}, {"measurement": "inhibition of ovulation in the rat", "setting": "ovulation [4]", "result": "inhibit ovulation"}, {"measurement": "BINDING AFFINITY Progester, figure in ( ): relative binding affinity of the human isoform A progesterone receptor", "setting": "[8]", "result": 234}]}
{"compound": "CC(=O)O[C@]1(C(=O)CO)CCC2C3CCC4=CC(=O)CCC4=C3C(c3ccc(N(C)C)cc3)C[C@@]21C", "note": "(stereo partly drawn) [Compound 41, 17α-acetoxy-21-hydroxy-11β-[4-(N,N-dimethylamino)phenyl]-19-norpregna-4,9-diene-3,20-dione]", "values": [{"measurement": "stability to base", "setting": "[13]", "result": "extremely labile to base"}]}
